{"source": "patent US6965033B2", "about": "“Bisamidate phosphonate prodrugs” (Metabasis Therapeutics, Inc., priority 1999, dated 2005)", "key": {"[1]": {"tested_on": "Zucker Diabetic Fatty (ZDF rat)", "experiment": "Acute Oral Efficacy in the ZDF Rat", "format": "in vivo", "method": "Methods: ZDF rats were purchased from Genetics Inc (Indianapolis, Ind.) at 8 weeks of age. Animals were maintained under standard vivarium conditions and provided with Purina 5008 chow and water ad libitum. At 10-12 weeks of age, rats with blood glucose levels>500 mg/dl were selected and dosed orally either with vehicle (PEG 400), or prodrug (60 mg/kg). Blood glucose levels were monitored at regular intervals for 6 hours following dosing. Blood samples were taken from tail vein nicks and analyzed by means of a HemoCue glucose analyzer (Hemocue, Mission Viejo, Calif.). Statistical analysis was performed using the Student's t test. Means±standard error of the means are shown."}, "[2]": {"tested_on": "ZDF rat", "experiment": "Chronic Oral Efficacy in the ZDF Rat", "format": "in vivo", "method": "Methods: ZDF rats (10 weeks of age) were maintained either on powdered Purina 5008 rat chow (n=10) or the same powdered chow supplemented with 0.4% 50.6 (n=8). Blood glucose measurements were made as described in Example E at baseline and at weekly intervals thereafter for a total of 3 weeks. Statistical analysis was performed using the Student's t test. Means±standard error of the means are shown."}, "[3]": {"experiment": "Metabolism of 50.6 in rat plasma", "format": "in vitro ADME", "conditions": "100 μM", "method": "(§1) The metabolism of 50.6 was evaluated in rat, monkey, and human plasma by reverse phase HPLC with use of a Beckman Ultrasphere ODS column (4.6×150 mm) equipped with an Alltech All-Guard column. The column was equilibrated with 20 mM potassium phosphate, pH 6.2 and eluted with a linear gradient of 0-60% acetonitrile over 20 minutes at a flow rate of 1.5 mL/min and at a temperature of 40° C. UV absorbance was monitored at 300 nm. […] The metabolite formed in rat plasma was collected and subjected to mass spectrum analysis at Mass Consortium Corporation (San Diego, Calif.). […] This molecular weight is consistent with that of a monophosphoramidate intermediate. This intermediate is likely formed via a reaction mechanism in which the prodrug first undergoes full de-esterification followed by intramolecular, hydrolytic cleavage of one of the amino acyl substituents. Formation of the postulated monophosphoramidate intermediate was confirmed following the synthesis of a synthetic standard, Compound C. The standard had the identical HPLC and UV profile as the metabolite formed in plasma samples."}, "[4]": {"experiment": "Metabolism of 50.6 in monkey plasma", "format": "in vitro ADME", "conditions": "100 μM", "method": "as §1"}, "[5]": {"experiment": "Metabolism of 50.6 in human plasma", "format": "in vitro ADME", "conditions": "100 μM", "method": "as §1"}, "[6]": {"tested_on": "human hepatocytes", "experiment": "Metabolism of 50.6 in Human Hepatocytes", "format": "in vitro ADME", "conditions": "10 μM", "method": "Cryopreserved human hepatocytes were obtained from In Vitro Technologies and thawed according to the vendor's recommendations. Cells were incubated at 37° C. in a Krebs-bicarbonate based buffer containing 50.6 at 10 μM. At various time points over the course of 4 hours, aliquots of cells were removed and extracted by addition of methanol to 60%. Cell extracts were clarified by centrifugation and analyzed by reverse phase HPLC with use of a Beckman Ultrasphere ODS column (4.6×150 mm) equipped with an Alltech All-Guard column. […]. Disappearance of 50.6 was rapid and essentially complete within 60 minutes of incubation. […] The initial rate of 3.1 formation was 24 pmol/million cells/minute. […]"}, "[7]": {"tested_on": "Human Liver Phosphoramidase", "experiment": "Structure Activity Relationship of Human Liver Phosphoramidase (human liver homogenate)", "format": "in vitro ADME", "conditions": "pH 7.4", "method": "Human liver, purchased from the Anatomic Gift Foundation (Laurel, Md.), was homogenized in Krebs-bicarbonate buffer and clarified by a slow-speed centrifugation. Prodrug metabolism was evaluated in reaction mixtures containing human liver homogenate (4 mgs protein), 50 mM Tris-HCl, pH 7.4, 10 mM MgCl2, and 10 mM dithiothreitol. At various time intervals over the course of 2 hours, aliquots were removed from the reaction mixtures and deproteinated by addition of methanol to 60%. Following clarification by centrifugation, metabolites were analyzed by reverse phase HPLC with use of a Beckman Ultrasphere ODS column (4.6×150 mm) equipped with an Alltech All-Guard column. The column was equilibrated with 20 mM potassium phosphate, pH 6.2 and eluted with a linear gradient of 0-60% acetonitrile over 20 minutes at a flow rate of 1.5 mL/min and at a temperature of 40° C. UV absorbance was monitored at 300 nm. Most of the prodrugs evaluated were metabolized via a non-rate limiting, esterase-catalyzed step to their monophosphoramidate form within 5 minutes of incubation. The rate of phosphonic acid appearance was therefore essentially a reflection of the rate of the final […] cleavage step. Results for representative prodrugs for which the esterase-catalyzed step was non-rate limiting are shown below: […]"}}, "data": [{"smiles": "CCOC(=O)[C@H](C)NP(=O)(N[C@@H](C)C(=O)OCC)c1ccc(-c2nc(N)sc2CC(C)C)o1", "note": "[Compound 50.6, 2-Amino-5-isobutyl-4-{2-[5-(N,N′-bis((S)-1-ethoxycarbonyl)ethyl)phosphonamido]furanyl}thiazole]", "values": [{"measurement": "Blood Glucose, T6h", "setting": "[1]; 6 h after 60 mg/kg oral", "result": "406 ± 12", "unit": "mg/dL"}, {"measurement": "Blood Glucose, % Change", "setting": "[1]; baseline to 6 h, 60 mg/kg oral", "result": "−25", "unit": "%"}, {"measurement": "Blood Glucose, Tbaseline", "setting": "[1]; baseline, 60 mg/kg oral group", "result": "544 ± 25", "unit": "mg/dL"}, {"measurement": "Blood glucose, t21 days", "setting": "[2]; 21 days on chow supplemented with 0.4% drug", "result": "436 ± 41", "unit": "mg/dL"}, {"measurement": "Blood Glucose, Tbaseline", "setting": "[2]; baseline, chow with 0.4% drug group", "result": "674 ± 20", "unit": "mg/dL"}, {"measurement": "metabolites formed in plasma", "setting": "[3]", "result": "single metabolite"}, {"measurement": "metabolites formed in plasma", "setting": "[4]", "result": "single metabolite"}, {"measurement": "metabolites formed in plasma", "setting": "[5]", "result": "single metabolite"}, {"measurement": "time to essentially complete disappearance", "setting": "[6]; cryopreserved human hepatocytes, 37° C.", "result": "≤ 60", "unit": "min"}, {"measurement": "initial rate of 3.1 formation", "setting": "[6]; human hepatocytes", "result": 24, "unit": "pmol/million cells/minute"}, {"measurement": "metabolites detected", "setting": "[6]; human hepatocytes", "result": "Compound C and 3.1"}, {"measurement": "Phosphoramidase Activity (Rate of 3.1 or 3.58 production, nmoles/mn/mg liver protein)", "setting": "[7]", "result": "0.022 nmoles/mn/mg liver protein"}]}]}
